# Assay results taken from ChEMBL document CHEMBL1149262, “Monoamine transporter binding, locomotor activity, and drug discrimination properties of 3-(4-substituted-phenyl)tropane-2-carboxylic acid methyl ester isomers” (J Med Chem, 2004).
# Activity calls are given as the source filed them. No cut-off for these calls is given here.
# Key:
# Mus musculus [1] = test: Locomotor activity in CD1 mouse assessed as stimulation at 30 mg/kg, ip after 3 hrs relative to control; format: functional; details: route intraperitoneal
# Mus musculus [2] = test: Activity in CD1 mouse assessed as slight or intermittent stimulation at 10 mg/kg, ip after 4 hrs; format: functional, organism-based; design: dose 10 mg/kg
# Rattus norvegicus [3] = test: Drug discrimination effect in CD Albino rat assessed as percent of rat choosing cocaine lever at 17 mg/kg, ip; format: functional; details: route intraperitoneal
# Mus musculus [4] = test: Locomotor activity in CD1 mouse assessed as stimulation at 30 mg/kg, ip after 4 hrs relative to control; format: functional; details: route intraperitoneal
# Mus musculus [5] = test: Locomotor activity in CD1 mouse assessed as stimulation at 1 mg/kg, ip after 4 hrs relative to control; format: functional; details: route intraperitoneal
# Mus musculus [6] = test: Activity in CD1 mouse assessed as circling at 100 mg/kg, ip after 4 hrs; format: functional, organism-based; design: dose 100 mg/kg
# Mus musculus [7] = test: Locomotor activity in CD1 mouse assessed as stimulation at 30 mg/kg, ip after 2 hrs relative to control; format: functional; details: route intraperitoneal
# Mus musculus [8] = test: Locomotor activity in CD1 mouse assessed as stimulation at 3 mg/kg, ip after 1 hr relative to control; format: functional; details: route intraperitoneal
# Mus musculus [9] = test: Locomotor activity in CD1 mouse assessed as stimulation at 3 mg/kg, ip after 2 hrs relative to control; format: functional; details: route intraperitoneal
# Mus musculus [10] = test: Activity in CD1 mouse assessed as hypoactivity at 100 mg/kg, ip after 4 hrs; format: functional, organism-based; design: dose 100 mg/kg
# Mus musculus [11] = test: Locomotor activity in CD1 mouse assessed as stimulation at 10 mg/kg, ip after 2 hrs relative to control; format: functional; details: route intraperitoneal
# [12] = biological target: Sodium-dependent noradrenaline transporter (Homo sapiens, UniProt P23975); test: Displacement of [3H]nisoxetine from NET
# Sequence of Sodium-dependent noradrenaline transporter (P23975 whole entry): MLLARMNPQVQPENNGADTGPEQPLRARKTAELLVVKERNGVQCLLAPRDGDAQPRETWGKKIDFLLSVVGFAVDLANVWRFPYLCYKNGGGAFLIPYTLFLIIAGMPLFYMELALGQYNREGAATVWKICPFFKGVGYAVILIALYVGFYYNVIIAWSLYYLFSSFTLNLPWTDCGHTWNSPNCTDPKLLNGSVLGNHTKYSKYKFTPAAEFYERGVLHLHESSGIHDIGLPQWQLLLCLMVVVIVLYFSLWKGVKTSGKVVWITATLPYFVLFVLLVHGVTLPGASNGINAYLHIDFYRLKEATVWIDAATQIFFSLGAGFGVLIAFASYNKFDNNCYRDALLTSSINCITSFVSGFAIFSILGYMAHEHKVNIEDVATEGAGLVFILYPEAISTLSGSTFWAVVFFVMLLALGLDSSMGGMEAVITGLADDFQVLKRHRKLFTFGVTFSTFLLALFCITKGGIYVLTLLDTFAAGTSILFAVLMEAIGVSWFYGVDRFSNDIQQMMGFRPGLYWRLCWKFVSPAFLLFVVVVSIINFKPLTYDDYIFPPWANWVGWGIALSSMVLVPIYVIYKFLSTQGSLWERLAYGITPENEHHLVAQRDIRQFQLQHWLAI
# Mus musculus [13] = test: Activity in CD1 mouse assessed as convulsions at 100 mg/kg, ip after 4 hrs; format: functional, organism-based; design: dose 100 mg/kg
# Mus musculus [14] = test: Locomotor activity in CD1 mouse assessed as stimulation at 1 mg/kg, ip after 3 hrs relative to control; format: functional; details: route intraperitoneal
# Mus musculus [15] = test: Locomotor activity in CD1 mouse assessed as stimulation at 3 mg/kg, ip after 4 hrs relative to control; format: functional; details: route intraperitoneal
# Mus musculus [16] = test: Locomotor activity in CD1 mouse assessed as stimulation at 3 mg/kg, ip after 3 hrs relative to control; format: functional; details: route intraperitoneal
# Rattus norvegicus [17] = test: Cocaine discrimination in ip dosed CD Albino rat; format: functional
# Mus musculus [18] = test: Locomotor activity in CD1 mouse assessed as stimulation at 1 mg/kg, ip after 2 hrs relative to control; format: functional; details: route intraperitoneal
# Rattus norvegicus [19] = test: Drug discrimination effect in CD Albino rat assessed as percent of rat choosing cocaine lever at 30 mg/kg, ip; format: functional; details: route intraperitoneal
# Mus musculus [20] = test: Locomotor activity in CD1 mouse assessed as stimulation at 10 mg/kg, ip after 3 hrs relative to control; format: functional; details: route intraperitoneal
# Rattus norvegicus [21] = test: Drug discrimination effect in CD Albino rat assessed as percent of rat choosing cocaine lever at 10 mg/kg, ip; format: functional; details: route intraperitoneal
# Mus musculus [22] = test: Locomotor activity in CD1 mouse assessed as stimulation at 30 mg/kg, ip after 1 hr relative to control; format: functional; details: route intraperitoneal
# Mus musculus [23] = test: Activity in CD1 mouse assessed as ataxia at 100 mg/kg, ip after 4 hrs; format: functional, organism-based; design: dose 100 mg/kg
# Mus musculus [24] = test: Locomotor activity in CD1 mouse assessed as stimulation at 1 mg/kg, ip after 1 hr relative to control; format: functional; details: route intraperitoneal
# Rattus norvegicus [25] = test: Drug discrimination effect in CD Albino rat assessed as percent of rat choosing cocaine lever at 3 mg/kg, ip; format: functional; details: route intraperitoneal
# Rattus norvegicus [26] = test: Drug discrimination effect in CD Albino rat assessed as percent of rat choosing cocaine lever at 5.6 mg/kg, ip; format: functional; details: route intraperitoneal
# [27] = biological target: Sodium-dependent dopamine transporter (Homo sapiens, UniProt Q01959); test: Displacement of [3H]WIN-35428 from DAT
# Sequence of Sodium-dependent dopamine transporter (Q01959 whole entry): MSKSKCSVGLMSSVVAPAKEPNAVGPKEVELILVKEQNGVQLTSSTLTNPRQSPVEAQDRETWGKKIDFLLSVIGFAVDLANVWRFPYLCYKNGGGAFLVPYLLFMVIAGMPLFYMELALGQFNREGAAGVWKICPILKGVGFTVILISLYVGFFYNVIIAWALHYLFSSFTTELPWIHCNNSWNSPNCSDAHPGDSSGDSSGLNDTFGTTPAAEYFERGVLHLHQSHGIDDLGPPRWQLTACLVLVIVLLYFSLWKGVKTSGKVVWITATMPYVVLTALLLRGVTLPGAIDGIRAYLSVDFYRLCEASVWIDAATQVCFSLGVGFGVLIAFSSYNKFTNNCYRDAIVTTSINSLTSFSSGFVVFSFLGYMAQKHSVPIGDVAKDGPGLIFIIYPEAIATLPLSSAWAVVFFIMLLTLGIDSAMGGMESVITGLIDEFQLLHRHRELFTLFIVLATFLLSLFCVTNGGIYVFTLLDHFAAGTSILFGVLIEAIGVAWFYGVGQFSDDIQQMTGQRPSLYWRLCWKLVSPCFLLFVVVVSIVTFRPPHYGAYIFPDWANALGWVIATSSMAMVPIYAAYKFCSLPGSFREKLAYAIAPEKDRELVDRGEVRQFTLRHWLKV
# Mus musculus [28] = test: Locomotor activity in CD1 mouse assessed as stimulation at 10 mg/kg, ip after 4 hrs relative to control; format: functional; details: route intraperitoneal
# Mus musculus [29] = test: Activity in CD1 mouse assessed as hind limb splay at 100 mg/kg, ip after 4 hrs; format: functional, organism-based; design: dose 100 mg/kg; details: Hindlimb
# Mus musculus [30] = test: Locomotor activity in CD1 mouse assessed as stimulation at 10 mg/kg, ip after 1 hr relative to control; format: functional; details: route intraperitoneal
# Mus musculus [31] = test: Locomotor activity in ip dosed CD1 mouse in peak hour; format: functional
# Rattus norvegicus [32] = test: Drug discrimination effect in CD Albino rat assessed as percent of rat choosing cocaine lever at 1.7 mg/kg, ip; format: functional; details: route intraperitoneal
# [33] = biological target: Sodium-dependent serotonin transporter (Homo sapiens, UniProt P31645)
# Sequence of Sodium-dependent serotonin transporter (P31645 whole entry): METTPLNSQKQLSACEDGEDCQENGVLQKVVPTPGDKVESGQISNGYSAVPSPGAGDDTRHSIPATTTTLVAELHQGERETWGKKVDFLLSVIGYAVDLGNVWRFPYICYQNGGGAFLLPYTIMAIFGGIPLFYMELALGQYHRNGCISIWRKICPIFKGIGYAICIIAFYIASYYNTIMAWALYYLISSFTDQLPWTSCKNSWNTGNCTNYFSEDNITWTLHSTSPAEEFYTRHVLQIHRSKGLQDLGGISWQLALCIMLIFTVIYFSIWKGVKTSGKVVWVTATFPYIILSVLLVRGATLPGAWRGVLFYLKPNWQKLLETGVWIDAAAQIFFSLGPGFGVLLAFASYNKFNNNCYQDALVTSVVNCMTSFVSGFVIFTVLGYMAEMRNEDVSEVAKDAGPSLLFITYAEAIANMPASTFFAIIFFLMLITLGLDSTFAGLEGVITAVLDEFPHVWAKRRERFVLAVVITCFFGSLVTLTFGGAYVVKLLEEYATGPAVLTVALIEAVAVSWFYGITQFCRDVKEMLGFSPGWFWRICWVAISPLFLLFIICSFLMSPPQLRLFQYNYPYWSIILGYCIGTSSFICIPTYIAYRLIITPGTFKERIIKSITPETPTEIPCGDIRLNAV
# Description: Displacement of [3H]paroxetine from 5HTT
# Mus musculus [34] = test: Activity in CD1 mouse assessed as stereotypy at 10 mg/kg, ip after 4 hrs; format: functional, organism-based; design: dose 10 mg/kg
# Mus musculus [35] = test: Activity in CD1 mouse assessed as stereotypy at 100 mg/kg, ip after 4 hrs; format: functional, organism-based; design: dose 100 mg/kg
# Rattus norvegicus [36] = test: Drug discrimination effect in CD Albino rat assessed as percent of rat choosing cocaine lever at 1 mg/kg, ip; format: functional; details: route intraperitoneal
# Mus musculus [37] = test: Activity in CD1 mouse assessed as stimulation at 1 mg/kg, ip after 4 hrs; format: functional, organism-based; design: dose 1 mg/kg
# Mus musculus [38] = test: Activity in CD1 mouse assessed as hyperactivity at 10 mg/kg, ip after 4 hrs; format: functional, organism-based; design: dose 10 mg/kg
# Rattus norvegicus [39] = test: Drug discrimination effect in CD Albino rat assessed as percent of rat choosing cocaine lever at 0.17 mg/kg, ip; format: functional; details: route intraperitoneal
# Mus musculus [40] = test: Locomotor activity in CD1 mouse assessed as stimulation at 0.1 mg/kg, ip after 1 hr relative to control; format: functional; details: route intraperitoneal
# Mus musculus [41] = test: Locomotor activity in CD1 mouse assessed as stimulation at 0.1 mg/kg, ip after 2 hrs relative to control; format: functional; details: route intraperitoneal
# Mus musculus [42] = test: Locomotor activity in CD1 mouse assessed as stimulation at 0.1 mg/kg, ip after 4 hrs relative to control; format: functional; details: route intraperitoneal
# Mus musculus [43] = test: Activity in CD1 mouse assessed as circling at 10 mg/kg, ip after 4 hrs; format: functional, organism-based; design: dose 10 mg/kg
# Mus musculus [44] = test: Locomotor activity in CD1 mouse assessed as stimulation at 0.3 mg/kg, ip after 3 hrs relative to control; format: functional; details: route intraperitoneal
# Rattus norvegicus [45] = test: Drug discrimination effect in CD Albino rat assessed as percent of rat choosing cocaine lever at 0.3 mg/kg, ip; format: functional; details: route intraperitoneal
# Mus musculus [46] = test: Activity in CD1 mouse assessed as stereotypy at 1 mg/kg, ip after 4 hrs; format: functional, organism-based; design: dose 1 mg/kg
# Rattus norvegicus [47] = test: Drug discrimination effect in CD Albino rat assessed as percent of rat choosing cocaine lever at 0.1 mg/kg, ip; format: functional; details: route intraperitoneal
# Mus musculus [48] = test: Locomotor activity in CD1 mouse assessed as stimulation at 0.03 mg/kg, ip after 4 hrs relative to control; format: functional; details: route intraperitoneal
# Mus musculus [49] = test: Locomotor activity in CD1 mouse assessed as stimulation at 0.1 mg/kg, ip after 3 hrs relative to control; format: functional; details: route intraperitoneal
# Mus musculus [50] = test: Locomotor activity in CD1 mouse assessed as stimulation at 0.03 mg/kg, ip after 3 hrs relative to control; format: functional; details: route intraperitoneal
# Mus musculus [51] = test: Locomotor activity in CD1 mouse assessed as stimulation at 0.3 mg/kg, ip after 1 hr relative to control; format: functional; details: route intraperitoneal
# Mus musculus [52] = test: Locomotor activity in CD1 mouse assessed as stimulation at 0.03 mg/kg, ip after 1 hr relative to control; format: functional; details: route intraperitoneal
# Mus musculus [53] = test: Locomotor activity in CD1 mouse assessed as stimulation at 0.3 mg/kg, ip after 2 hrs relative to control; format: functional; details: route intraperitoneal
# Mus musculus [54] = test: Activity in CD1 mouse assessed as hyperactivity at 1 mg/kg, ip after 4 hrs; format: functional, organism-based; design: dose 1 mg/kg
# Mus musculus [55] = test: Locomotor activity in CD1 mouse assessed as stimulation at 0.03 mg/kg, ip after 2 hrs relative to control; format: functional; details: route intraperitoneal
# Mus musculus [56] = test: Locomotor activity in CD1 mouse assessed as stimulation at 0.3 mg/kg, ip after 4 hrs relative to control; format: functional; details: route intraperitoneal
structure (smiles),measurement,setting,value
COC(=O)[C@H]1C2CCC(C[C@@H]1c1ccc(C)cc1)N2C (stereo partly specified),Activity,Mus musculus [1],17%
same,Activity,Mus musculus [2],Active
same,Activity,Rattus norvegicus [3],71%
same,Activity,Mus musculus [4],42%
same,Activity,Mus musculus [5],-68%
same,Activity,Mus musculus [6],Active
same,Activity,Mus musculus [7],7%
same,Activity,Mus musculus [8],20%
same,Activity,Mus musculus [9],10%
same,Activity,Mus musculus [10],Active
same,Activity,Mus musculus [11],-11%
same,IC50,[12],2230 nM
same,Ki,[12],1120 nM
same,Activity,Mus musculus [13],Active
same,Activity,Mus musculus [14],39%
same,Activity,Mus musculus [15],39%
same,Activity,Mus musculus [16],-1%
same,ED50,Rattus norvegicus [17],7.11 mg/kg
same,Activity,Mus musculus [18],-76%
same,Activity,Rattus norvegicus [19],100%
same,Activity,Mus musculus [20],6%
same,Activity,Rattus norvegicus [21],71%
same,Activity,Mus musculus [22],-23%
same,Activity,Mus musculus [23],Active
same,Activity,Mus musculus [24],-42%
same,Activity,Rattus norvegicus [25],13%
same,Activity,Rattus norvegicus [26],43%
same,IC50,[27],207 nM
same,Activity,Mus musculus [28],55%
same,Activity,Mus musculus [29],Active
same,Activity,Mus musculus [30],24%
COC(=O)[C@@H]1C2CCC(C[C@H]1c1ccc(Br)cc1)N2C (stereo partly specified),Activity,Mus musculus [1],1275%
same,ED50,Mus musculus [31],6.6 mg/kg
same,Activity,Mus musculus [4],883%
same,Activity,Rattus norvegicus [32],13%
same,Activity,Mus musculus [5],-12%
same,Activity,Mus musculus [6],Active
same,Activity,Mus musculus [7],861%
same,IC50,[33],84 nM
same,Ki,[33],20.6 nM
same,Activity,Mus musculus [8],60%
same,Activity,Mus musculus [9],88%
same,Activity,Mus musculus [11],457%
same,Activity,Mus musculus [14],-56%
same,Activity,Mus musculus [15],109%
same,Activity,Mus musculus [34],Active
same,Activity,Mus musculus [16],100%
same,ED50,Rattus norvegicus [17],2.98 mg/kg
same,Activity,Mus musculus [18],-26%
same,Activity,Mus musculus [35],Active
same,Activity,Mus musculus [20],686%
same,Activity,Rattus norvegicus [36],13%
same,Activity,Mus musculus [22],518%
same,Activity,Mus musculus [24],35%
same,Activity,Rattus norvegicus [25],50%
same,Activity,Rattus norvegicus [26],88%
same,IC50,[27],1.7 nM
same,Activity,Mus musculus [37],Active
same,Activity,Mus musculus [28],781%
same,Activity,Mus musculus [30],353%
same,Activity,Mus musculus [38],Active
COC(=O)[C@@H]1C2CCC(C[C@@H]1c1ccc(Br)cc1)N2C (stereo partly specified),Activity,Rattus norvegicus [39],50%
same,Activity,Mus musculus [40],-38%
same,ED50,Mus musculus [31],0.1 mg/kg
same,Activity,Mus musculus [41],29%
same,Activity,Mus musculus [42],116%
same,Activity,Mus musculus [43],Active
same,Activity,Mus musculus [5],656%
same,Activity,Mus musculus [6],Active
same,IC50,[33],10.6 nM
same,Ki,[33],0.96 nM
same,Activity,Mus musculus [44],869%
same,Activity,Rattus norvegicus [45],100%
same,Activity,Mus musculus [46],Active
same,Activity,Rattus norvegicus [47],14%
same,Activity,Mus musculus [48],-43%
same,Activity,Mus musculus [14],302%
same,Activity,Mus musculus [34],Active
same,Activity,Mus musculus [49],81%
same,ED50,Rattus norvegicus [17],0.17 mg/kg
same,Activity,Mus musculus [18],35%
same,Activity,Mus musculus [35],Active
same,Activity,Mus musculus [50],9%
same,Activity,Mus musculus [51],259%
same,Activity,Mus musculus [24],258%
same,Activity,Mus musculus [52],-30%
same,Activity,Mus musculus [53],598%
same,IC50,[27],1.7 nM
same,Activity,Mus musculus [54],Active
same,Activity,Mus musculus [55],-39%
same,Activity,Mus musculus [56],834%
